Measurements: patent US7105547B2, “Antimicrobial 1-aryl dihydropyridone compounds” (Pharmacia and Upjohn Company, priority 2002, dated 2006)
≈ marks a conversion by molar mass, not a printed value. Where two headings read alike, the source gives them in different places.

What was measured:
[1] = system: Staphylococcus aureus UC9213 (SAUR 9213); assay: MIC by agar dilution against Staphylococcus aureus UC9213; type: cell-based; details: read-out: SAUR 9213 MIC (Minimum Inhibitory Concentration)
Excerpt: (§1) Compounds of this invention have useful activity against a variety of organisms. The in vitro activity of compounds of this invention can be assessed by standard testing procedures such as the determination of minimum inhibitory concentration (MIC) by agar dilution as described in “Approved Standard. Methods for Dilution Antimicrobial Susceptibility Tests for Bacteria That Grow Aerobically”, 3rd. ed., published 1993 by the National Committee for Clinical Laboratory Standards, Villanova, Pa., USA.

SPNE 9912 = assay: MIC by agar dilution against SPNE 9912; type: cell-based; details: Streptococcus pneumoniae, read-out: SPNE 9912 MIC (Minimum Inhibitory Concentration)
Excerpt: as §1

HINF 30063 = assay: MIC by agar dilution against HINF 30063; type: cell-based, H. influenzae; details: Haemophilus influenzae, read-out: HINF 30063 MIC (Minimum Inhibitory Concentration)
Excerpt: as §1

| Compound | MIC [1] | MIC (SPNE 9912) | MIC (HINF 30063; HINF 30063, agar dilution) | MIC (HINF 30063) |
| --- | --- | --- | --- | --- |
| O=C1C=CN(c2ccc(N3C[C@H](CNC(=O)C(Cl)Cl)OC3=O)cc2)CC1 [Example 8, 2,2-dichloro-N-{2-oxo-3-[4-(4-oxo-3,4-dihydro-2H-pyridin-1-yl)-phenyl]-oxazolidin-5-ylmethyl}-acetamide] | 2 µg/mL (≈ 5.02 µM) | 0.25 µg/mL (≈ 0.628 µM) | 2 µg/mL (≈ 5.02 µM) | – |
| COC(=O)NC[C@H]1CN(c2ccc(N3C=CC(=O)CC3)c(F)c2)C(=O)O1 [Example 7, {3-[3-fluoro-4-(4-oxo-3,4-dihydro-2H-pyridin-1-yl)-phenyl]-2-oxo-oxazolidin-5-ylmethyl}-carbamic Acid Methyl Ester] | 2 µg/mL (≈ 5.5 µM) | 0.5 µg/mL (≈ 1.38 µM) | 8 µg/mL (≈ 22 µM) | – |
| O=C1C=CN(c2ccc(N3C[C@H](CNC(=O)C(Cl)Cl)OC3=O)cc2F)CC1 [Example 5, 2,2-dichloro-N-{3-[3-fluoro-4-(4-oxo-3,4-dihydro-2H-pyridin-1-yl)-phenyl]-2-oxo-oxazolidin-5-ylmethyl}-acetamide] | 1 µg/mL (≈ 2.4 µM) | 0.25 µg/mL (≈ 0.601 µM) | 1 µg/mL (≈ 2.4 µM) | – |
| CCC(=O)NC[C@H]1CN(c2ccc(N3C=CC(=O)CC3)cc2)C(=O)O1 [Example 12, N-{2-oxo-3-[4-(4-oxo-3,4-dihydro-2H-pyridin-1-yl)-phenyl]-oxazolidin-5-ylmethyl}-propionamide] | 4 µg/mL (≈ 11.6 µM) | 0.5 µg/mL (≈ 1.46 µM) | 4 µg/mL (≈ 11.6 µM) | – |
| O=C1C=CN(c2ccc(N3C[C@H](CNC(=O)C(F)F)OC3=O)cc2)CC1 [Example 11, 2,2-difluoro-N-{2-oxo-3-[4-(4-oxo-3,4-dihydro-2H-pyridin-1-yl)-phenyl]-oxazolidin-5-ylmethyl}-acetamide] | 2 µg/mL (≈ 5.47 µM) | 0.5 µg/mL (≈ 1.37 µM) | 4 µg/mL (≈ 10.9 µM) | – |
| O=C1C=CN(c2c(F)cc(N3C[C@H](CNC(=S)C(F)F)OC3=O)cc2F)CC1 [Example 14, N-{3-[3,5-difluoro-4-(4-oxo-3,4-dihydro-2H-pyridin-1-yl)-phenyl]-2-oxo-oxazolidin-5-ylmethyl}-2,2-difluoro-thioacetamide] | 0.5 µg/mL (≈ 1.2 µM) | 0.25 µg/mL (≈ 0.599 µM) | 8 µg/mL (≈ 19.2 µM) | – |
| O=C1C=CN(c2c(F)cc(N3C[C@H](CNC(=O)C(F)F)OC3=O)cc2F)CC1 [Example 13, N-{3-[3,5-difluoro-4-(4-oxo-3,4-dihydro-2H-pyridin-1-yl)-phenyl]-2-oxo-oxazolidin-5-ylmethyl}-2,2-difluoro-acetamide] | 2 µg/mL (≈ 4.98 µM) | 0.25 µg/mL (≈ 0.623 µM) | 8 µg/mL (≈ 19.9 µM) | – |
| O=C1C=CN(c2ccc(N3C[C@H](CNC(=S)C(F)F)OC3=O)cc2)CC1 [Example 10, 2,2-difluoro-N-{2-oxo-3-[4-(4-oxo-3,4-dihydro-2H-pyridin-1-yl)-phenyl]-oxazolidin-5-ylmethyl}-thioacetamide] | 1 µg/mL (≈ 2.62 µM) | 0.25 µg/mL (≈ 0.655 µM) | 4 µg/mL (≈ 10.5 µM) | – |
| CCC(=O)NC[C@H]1CN(c2ccc(N3C=CC(=O)CC3)c(F)c2)C(=O)O1 [Example 4, N-{3-[3-fluoro-4-(4-oxo-3,4-dihydro-2H-pyridin-1-yl)-phenyl]-2-oxo-oxazolidin-5-ylmethyl}-propionamide] | 1 µg/mL (≈ 2.77 µM) | 0.5 µg/mL (≈ 1.38 µM) | 2 µg/mL (≈ 5.53 µM) | – |
| O=C1C=CN(c2c(F)cc(N3C[C@H](CNC(=O)C(Cl)Cl)OC3=O)cc2F)CC1 [Example 15, 2,2-dichloro-N-{3-[3,5-difluoro-4-(4-oxo-3,4-dihydro-2H-pyridin-1-yl)-phenyl]-2-oxo-oxazolidin-5-ylmethyl}-acetamide] | 2 µg/mL (≈ 4.61 µM) | 0.25 µg/mL (≈ 0.576 µM) | 4 µg/mL (≈ 9.21 µM) | – |
| O=C1C=CN(c2ccc(N3C[C@H](Cn4ccnn4)OC3=O)cc2F)CC1 [Example 16, 1-{2-fluoro-4-[(5R)-2-oxo-5-(1H-1,2,3-triazol-1-ylmethyl)-1,3-oxazolidin-3-yl]phenyl}-2,3-dihydropyridin-4(1H)-one] | 1 µg/mL (≈ 2.8 µM) | 0.25 µg/mL (≈ 0.7 µM) | 8 µg/mL (≈ 22.4 µM) | – |
| O=C1C=CN(c2ccc(N3C[C@H](CNC(=O)C(F)F)OC3=O)cc2F)CC1 [Example 3, N-{3-[3-fluoro-4-(4-oxo-3,4-dihydro-2H-pyridin-1-yl)-phenyl]-2-oxo-oxazolidin-5-ylmethyl}-difluoroacetamide] | 1 µg/mL (≈ 2.61 µM) | 0.25 µg/mL (≈ 0.652 µM) | – | 2 µg/mL (≈ 5.22 µM) |
| CC(=O)NC[C@H]1CN(c2cc(F)c(N3C=CC(=O)CC3)c(F)c2)C(=O)O1 [Example 2, N-{3-[3,5-diluoro-4-(4-oxo-3,4-dihydro-2H-pyridin-1-yl)-phenyl]-2-oxo-oxazolidin-5-ylmethyl}-acetamide] | 1 µg/mL (≈ 2.74 µM) | 0.5 µg/mL (≈ 1.37 µM) | 8 µg/mL (≈ 21.9 µM) | – |
| CC(=O)NC[C@H]1CN(c2ccc(N3C=CC(=O)CC3)c(F)c2)C(=O)O1 [Example 1, N-{3-[3-fluoro-4-(4-oxo-3,4-dihydro-2H-pyridin-1-yl)-phenyl]-2-oxo-oxazolidin-5-ylmethyl}-acetamide] | 2 µg/mL (≈ 5.76 µM) | 0.25 µg/mL (≈ 0.72 µM) | 4 µg/mL (≈ 11.5 µM) | – |
| O=C1C=CN(c2ccc(N3C[C@H](CNC(=S)C(F)F)OC3=O)cc2F)CC1 [Example 6, 2,2-difluoro-N-{3-[3-fluoro-4-(4-oxo-3,4-dihydro-2H-pyridin-1-yl)-phenyl]-2-oxo-oxazolidin-5-ylmethyl}-thioacetamide] | 1 µg/mL (≈ 2.5 µM) | 0.125 µg/mL (≈ 0.313 µM) | 4 µg/mL (≈ 10 µM) | – |
| CC(=O)NC[C@H]1CN(c2ccc(N3C=CC(=O)CC3)cc2)C(=O)O1 [Example 9, N-{2-oxo-3-[4-(4-oxo-3,4-dihydro-2H-pyridin-1-yl)-phenyl]-oxazolidin-5-ylmethyl}-acetamide] | 2 µg/mL (≈ 6.07 µM) | 0.5 µg/mL (≈ 1.52 µM) | 4 µg/mL (≈ 12.1 µM) | – |
| O=C1C=CN(c2ccc(N3C[C@H](Cn4ccnn4)OC3=O)cc2)CC1 [Example 17, 1-{4-[(5R)-2-oxo-5-(1H-1,2,3-triazol-1-ylmethyl)-1,3-oxazolidin-3-yl]phenyl}-2,3-dihydropyridin-4(1H)-one] | 1 µg/mL (≈ 2.95 µM) | 1 µg/mL (≈ 2.95 µM) | 8 µg/mL (≈ 23.6 µM) | – |
